From patent EP0381913A1, “Benzohydroxamic-acid derivatives” (SANDOZ AG, priority 1988, dated 1990)

Test system: weeds
Test: greenhouse tests after either or both pre- and post-emergence application
Type: in vivo
Details: application rate corresponding to 0.25 kg/ha
Experimental: In pre-emergence testing, small plastic greenhouse pots filled with dry soil are seeded with the various weed seeds. Twenty-four hours or less after the seeding, the pots are sprayed with water until the soil is wet and the test compounds formulated as aqueous emulsions of acetone solutions containing emulsifiers are sprayed at the indicated concentrations emulsifiers are sprayed on the surface of the soil. After spraying, the soil containers are placed in the greenhouse and provided with supplementary heat as required and daily or more frequent watering. The plants are maintained under these conditions for a period of from 14 to 21 days, at which time the conditions of the plants and the degree of injury to the plants is rated.
After spraying, the plants are placed in a greenhouse and watered daily or more frequently. Water is not applied to the foliage of the treated plants. The severity of the injury is determined 21 days after treatment and is rated.

Structure (SMILES): COC(=O)CON(C(C)=O)C(=O)c1c(Cl)ccc(Cl)c1OC [Compound 1.12, Methyl N-acetyl-N-(3,6-dichloro-2methoxy)benzoylaminooxyacetate]
- control of weeds: substantial control of weeds
